Assay results: US12295396B2, “Antagonists of T2R54 and compositions and uses thereof” (Firmenich Incorporated, priority 2018, dated 2025)
Where two headings read alike, the source gives them in different places. Blank lines part the entries; values can stand above or below the compound they belong to.

Target: T1, hT2R54 (Homo sapiens, UniProt P59534)
T1 construct: expressed in transfected cells; it overexpresses a promiscuous G protein
T1 sequence (P59534 1-338): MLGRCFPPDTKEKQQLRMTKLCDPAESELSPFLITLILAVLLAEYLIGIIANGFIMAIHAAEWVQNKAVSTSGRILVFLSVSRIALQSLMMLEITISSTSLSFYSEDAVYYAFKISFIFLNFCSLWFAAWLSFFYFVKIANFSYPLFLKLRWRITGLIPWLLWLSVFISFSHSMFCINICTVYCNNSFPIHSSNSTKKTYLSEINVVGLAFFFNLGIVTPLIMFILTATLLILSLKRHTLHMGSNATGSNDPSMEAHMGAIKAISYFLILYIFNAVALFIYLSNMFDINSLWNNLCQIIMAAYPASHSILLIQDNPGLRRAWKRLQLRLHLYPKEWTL
Experiment: Cell-based assay for measuring hT2R54 inhibition (FLIPR calcium, Fluo4AM, acetaminophen as bitter agonist)
Outline: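 The readout was FLIPR calcium (Fluo4AM, 10 s baseline, 3 min post-addition) in cells stably carrying hT2R54 plus a promiscuous G protein, with host cells lacking hT2R54 as counter-control. Acetaminophen concentration series were tested with and without set test-compound levels. Half-maximal block of the agonist response gave the EC50/IC50.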

[1] = Table 7, cells stably expressing hT2R54 and a promiscuous G protein, read-out: hT2R54 IC50
[2] = Table 4, cells stably expressing hT2R54 and a promiscuous G protein, read-out: hT2R54 IC50
[3] = Table 2, cells stably expressing hT2R54 and a promiscuous G protein, read-out: hT2R54 IC50

SMILES: CCCS(=O)(=O)N1CCCC(N(C)CC(=O)Nc2cc3c(cc2C(C)=O)OCO3)C1 (stereo not drawn) [compound 190]
- IC50 [1]: 40 nM

SMILES: CCN(CCOC)CC(=O)Nc1cc2c(cc1C(C)=O)OCO2 [compound 131]
- IC50 [2]: 2000 nM

SMILES: COc1cc2c(cc1NC(=O)CN1CCN(C(=O)Cc3ccc(F)cc3)CC1)OCO2 [compound 371]
- IC50 [3]: 900 nM

SMILES: CC(=O)c1cc2c(cc1NC(=O)CC1CCCN(S(=O)(=O)CC(C)C)C1)OCO2 (stereo not drawn) [compound 226]
- IC50 (Table 8, read-out: hT2R54 IC50): 160 nM

SMILES: COc1cc2c(cc1NC(=O)CN1CCN(C(=O)c3n[nH]cc3C)CC1)OCO2 [compound 390]
- IC50 [3]: 2700 nM

SMILES: COc1cc2c(cc1NC(=O)CN1CCN(C(=O)C3CCN(C)C3)CC1)OCO2 (stereo not drawn) [compound 407]
- IC50 [3]: > 10000 nM

SMILES: CCOC(=O)CCN(C)CC(=O)Nc1cc2c(cc1C(C)=O)OCO2 [compound 133]
- IC50 [2]: 113 nM

SMILES: CCOC(=O)C1CN(C(=O)c2ccco2)CCN1CC(=O)Nc1cc2c(cc1C(C)=O)OCO2 (stereo not drawn) [compound 191, Ethyl 1-(2-((6-Acetylbenzo[d][1,3]dioxol-5-yl)amino)-2-oxoethyl)-4-(furan-2-carbonyl)piperazine-2-carboxylate]
- IC50 (given in example heading, read-out: IC50): 16 nM

SMILES: COc1cc2c(cc1NC(=O)CN1CCCCC1)OCO2 [compound 440]
- IC50 [2]: 1820 nM

SMILES: COCCC(=O)N1CCN(CC(=O)Nc2cc3c(cc2C(=O)OC)OCO3)CC1 [compound 312]
- IC50 [3]: 157 nM

SMILES: COC(=O)c1cc2c(cc1NC(=O)CN1CCC(OC)CC1)OCO2 [compound 435]
- IC50 [2]: 419 nM

SMILES: CC(=O)c1cc2c(cc1NC(=O)CN(C)C1CCCN(C(=O)CC(C)C)C1)OCO2 (stereo not drawn) [compound 185]
- IC50 [1]: 50 nM

SMILES: CC(=O)c1cc2c(cc1NC(=O)CN1CCC(O)C1)OCO2 (stereo not drawn) [compound 424]
- IC50 [2]: 1590 nM

SMILES: COc1ccccc1CC(=O)N1CCN(CC(=O)Nc2cc3c(cc2OC)OCO3)CC1 [compound 99]
- IC50 [3]: 600 nM

SMILES: COc1cc2c(cc1NC(=O)CN1CCN(C(=O)CN3CCOCC3)CC1)OCO2 [compound 365]
- IC50 [3]: 2640 nM

SMILES: CC(=O)c1cc2c(cc1NC(=O)CNC1CCN(C(=O)OC(C)(C)C)CC1)OCO2 [compound 139]
- IC50 [2]: 176 nM

SMILES: COc1cc2c(cc1NC(=O)CN1CCN(C(=O)c3cc(C)on3)CC1)OCO2 [compound 389]
- IC50 [3]: 400 nM

SMILES: COc1cc2c(cc1NC(=O)CN1CCN(C(=O)c3cccnc3)CC1)OCO2 [compound 95]
- IC50 [3]: 1340 nM

SMILES: CC(=O)c1cc2c(cc1NC(=O)CN1CCN(C(=O)Cc3ccco3)CC1)OCO2 [compound 64]
- IC50 [3]: 100 nM

SMILES: CC(=O)c1cc2c(cc1NC(=O)CC1CCN(C(=O)C(C)(C)C)CC1)OCO2 [compound 237]
- IC50 (Table 8, read-out: hT2R54 IC50): 190 nM

Other lines, results leading:

- IC50 [2]: 198 nM
SMILES: COC(=O)c1cc2c(cc1NC(=O)CN1CCOCC1)OCCO2 [compound 438]

- IC50 [3]: 18 nM
SMILES: CC(=O)c1cc2c(cc1NC(=O)CN1CCN(C(=O)C3CCCCO3)CC1)OCO2 (stereo not drawn) [compound 23]

- IC50 [2]: 220 nM
SMILES: CC(=O)c1cc2c(cc1NC(=O)C(C)N1CCC(O)CC1)OCCO2 (stereo not drawn) [compound 433]

- IC50 [3]: 170 nM
SMILES: CC(=O)c1cc2c(cc1NC(=O)C(C)N1CCN(C(=O)[C@H]3CCCO3)CC1)OCCO2 (stereo partly drawn) [compound 412]

- IC50 (Table 8, read-out: hT2R54 IC50): 86 nM
SMILES: CCC(=O)N1CCC(CC(=O)Nc2cc3c(cc2C(C)=O)OCO3)CC1 [compound 233]

- IC50 (Table 8, read-out: hT2R54 IC50): 300 nM
SMILES: CC(=O)c1cc2c(cc1NC(=O)CC1CCN(C(=O)[C@@H]3CCCO3)CC1)OCCO2 [compound 494]

- IC50 (Table 8, read-out: hT2R54 IC50): 17 nM
SMILES: CC(=O)c1cc2c(cc1NC(=O)CC1CCCN(C(=O)CC(C)C)C1)OCO2 (stereo not drawn) [compound 193, N-(6-acetylbenzo[d][1,3]dioxol-5-yl)-2-(1-(3-methylbutanoyl)piperidin-3-yl)acetamide]

- IC50 (Table 8, read-out: hT2R54 IC50): 160 nM
SMILES: CCOC(=O)N1CCOC(CC(=O)Nc2cc3c(cc2C(C)=O)OCO3)C1 (stereo not drawn) [compound 230]

- IC50 (Table 8, read-out: hT2R54 IC50): 240 nM
SMILES: CC(=O)c1cc2c(cc1NC(=O)CC1CCN(C(=O)c3cccnc3)CC1)OCCO2 [compound 485]

- IC50 [3]: 170 nM
SMILES: CC(=O)c1cc2c(cc1NC(=O)C(C)N1CCN(C(=O)[C@@H]3CCCO3)CC1)OCCO2 (stereo partly drawn) [compound 411]

- IC50 (Table 8, read-out: hT2R54 IC50): 250 nM
SMILES: CC(=O)c1cc2c(cc1NC(=O)CC1CCN(C(=O)c3ccc(CO)o3)CC1)OCCO2 [compound 487]

- IC50 [2]: 13 nM
SMILES: CCOC(=O)C1CN(CC(=O)Nc2cc3c(cc2C(C)=O)OCO3)CCO1 (stereo not drawn) [compound 127]

- IC50 [3]: 60 nM
SMILES: CC(=O)c1cc2c(cc1NC(=O)C(C)N1CCN(C(=O)C3CCCO3)CC1)OCO2 (stereo not drawn) [compound 318]

- IC50 [3]: 1140 nM
SMILES: COc1cc2c(cc1NC(=O)CN1CCN(C(=O)C3CCCCO3)CC1)OCO2 (stereo not drawn) [compound 86]

- IC50 [2]: 900 nM
SMILES: CC(=O)c1cc2c(cc1NC(=O)C(C)N1CCN(C(=O)OC(C)(C)C)CC1)OCO2 (stereo not drawn) [compound 431]

- IC50 (Table 8, read-out: hT2R54 IC50): 300 nM
SMILES: CC(=O)c1cc2c(cc1NC(=O)CC1CCN(C(=O)[C@H]3CCCO3)CC1)OCO2 [compound 471]
